The term MIC denotes the least concentration at which growth counts as inhibited. High values mean weaker potency, low ones greater potency.

This is an account of results in ChEMBL document CHEMBL1687768, “Liposomal amphotericin B and echinocandins as monotherapy or sequential or concomitant therapy in murine disseminated and pulmonary Aspergillus fumigatus infections” (Antimicrob Agents Chemother, 2010).

In brackets after ≈: the same amount, converted by molar mass. Activity calls are given as the source filed them. The rule behind the calls is not given here. Starred links: 1 amine or outer side, 2 acyl side, 3 side chain; linkers in the order of their positions; H or OH if unused. Positions of bridges follow the written chain, without caps; N, C: chain ends. Non-standard residues stand in square brackets, D forms with d. Residues, ends and D or L forms follow the SMILES beside them. *: point of attachment. hTyr(3S-OH,4S-OH,3'-OSO3H) = N[C@H](C(=O)O)[C@H](O)[C@@H](O)c1ccc(O)c(OS(=O)(=O)O)c1; Orn(4R-OH,5R-OH) = O=C([C@H](C[C@@H](O)[C@@H](O)N[*:3])N[*:1])[*:2]; Pro(3S-OH,4S-Me) = C[C@H]1CN[C@H](C(=O)O)[C@H]1O; X1 = CCCCCOc1ccc(-c2cc(-c3ccc(C(=O)*)cc3)no2)cc1; Gln(3R-OH) = NC(=O)C[C@@H](O)[C@H](N)C(=O)O; Hyp = O=C(O)[C@@H]1C[C@@H](O)CN1

Series [1] deals with Aspergillus fumigatus. In words: Antifungal activity against Aspergillus fumigatus ATCC 13073 infected in immunosuppressed Swiss Webster mouse assessed as increase in survival rate at 5 mg/kg, iv for 6 days treated 24 hrs postinfection measured after 28 days. The format is functional, organism-based. On the set-up: dose 5 mg/kg.
Series [2] deals with Aspergillus fumigatus. In words: Antifungal activity against Aspergillus fumigatus ATCC 13073. Format: functional.
Series [3] relates to Kidney. In words: Drug level in immunosuppressed Swiss Webster mouse kidney with pulmonary aspergillosis assessed as compound level per gram of tissue at 5 mg/kg/day, iv for 5 days measured on day 6. Format: ADME, organism-based. On the set-up: route intravenous. Conditions: in vivo, 120 h.
Series [4] deals with Aspergillus fumigatus. The series is described as follows: Antifungal activity against Aspergillus fumigatus ATCC 13073 infected Swiss Webster mouse pulmonary aspergillosis model assessed as organism survival at 5 mg/kg/day, iv for 5 days dosed 2 hrs post challenge. The format is functional.
Series [5] has as its system Spleen. In words: Drug level in immunosuppressed Swiss Webster mouse spleen with pulmonary aspergillosis assessed as compound level per gram of tissue at 5 mg/kg/day, iv for 5 days measured on day 6. On the set-up: route intravenous. Conditions: in vivo, 120 h. Format: ADME, organism-based.
Series [6] deals with Kidney. In words: Drug level in immunosuppressed Swiss Webster mouse Kidney with disseminated aspergillosis assessed as compound level per gram of tissue at 10 mg/kg/day, iv for 7 days measured on day 8. The format is ADME, organism-based. On the set-up: route intravenous. Conditions: in vivo, 168 h.
Series [7] concerns Aspergillus fumigatus. The series is described as follows: Antifungal activity against Aspergillus fumigatus ATCC 13073 infected in immunosuppressed Swiss Webster mouse assessed as reduction in fungal burden in spleen at 10 mg/kg, iv for 6 days treated 24 hrs postinfection measured 24 hrs after last dose relative to control. The format is functional, organism-based. On the set-up: dose 10 mg/kg.

For series [8], the system named is Kidney. The series is described as follows: Drug level in immunosuppressed Swiss Webster mouse Kidney with disseminated aspergillosis assessed as compound level per gram of tissue at 15 mg/kg/day, iv for 7 days measured on day 8. The format is ADME, organism-based. On the set-up: route intravenous. Conditions: in vivo, 168 h.
The test system of series [9] is Aspergillus fumigatus. In words: Antifungal activity against Aspergillus fumigatus ATCC 13073 infected in immunosuppressed Swiss Webster mouse assessed as reduction in fungal burden in spleen at 5 mg/kg, iv for 3 days treated 4 days postinfection relative to control. The format is functional, organism-based. On the set-up: dose 5 mg/kg.
For series [10], the system named is Aspergillus fumigatus. The series is described as follows: Antifungal activity against Aspergillus fumigatus ATCC 13073 infected in immunosuppressed Swiss Webster mouse assessed as reduction in fungal burden in kidney at 5 mg/kg, iv for 3 days treated 4 days postinfection relative to control. Format: functional, organism-based. On the set-up: dose 5 mg/kg.
The subject of series [11] is Aspergillus fumigatus. In words: Antifungal activity against Aspergillus fumigatus ATCC 13073 infected in immunosuppressed Swiss Webster mouse assessed as reduction in fungal burden in spleen at 5 mg/kg, iv for 6 days treated 24 hrs postinfection measured 24 hrs after last dose relative to control. The format is functional, organism-based. On the set-up: dose 5 mg/kg.

The subject of series [12] is Spleen. In words: Drug level in immunosuppressed Swiss Webster mouse spleen with disseminated aspergillosis assessed as compound level per gram of tissue at 5 mg/kg/day, iv for 7 days measured on day 8. Format: ADME, organism-based. On the set-up: route intravenous. Conditions: in vivo, 168 h.
The subject of series [13] is Aspergillus fumigatus. The series is described as follows: Antifungal activity against Aspergillus fumigatus ATCC 13073 infected in immunosuppressed Swiss Webster mouse assessed as survival rate at 15 mg/kg, iv for 6 days measured after 28 days. The format is functional.
Series [14] relates to Spleen. In words: Drug level in immunosuppressed Swiss Webster mouse spleen with disseminated aspergillosis assessed as compound level per gram of tissue at 10 mg/kg/day, iv for 7 days measured on day 8. The format is ADME, organism-based. On the set-up: route intravenous. Conditions: in vivo, 168 h.
The subject of series [15] is Aspergillus fumigatus. The series is described as follows: Antifungal activity against Aspergillus fumigatus ATCC 13073 infected in immunosuppressed Swiss Webster mouse assessed as reduction in fungal burden in spleen at 15 mg/kg, iv for 6 days treated 24 hrs postinfection measured 24 hrs after last dose by galactomnnan assay relative to control. Format: functional, organism-based. On the set-up: dose 15 mg/kg.

For series [16], the system named is Kidney. In words: Drug level in immunosuppressed Swiss Webster mouse Kidney with disseminated aspergillosis assessed as compound level per gram of tissue at 5 mg/kg/day, iv for 7 days measured on day 8. Format: ADME, organism-based. On the set-up: route intravenous. Conditions: in vivo, 168 h.
Series [17] relates to Spleen. In words: Drug level in immunosuppressed Swiss Webster mouse spleen with disseminated aspergillosis assessed as compound level per gram of tissue at 15 mg/kg/day, iv for 7 days measured on day 8. On the set-up: route intravenous. The format is ADME, organism-based. Conditions: in vivo, 168 h.
Series [18] relates to Aspergillus fumigatus. The series is described as follows: Antifungal activity against Aspergillus fumigatus ATCC 13073 infected in immunosuppressed Swiss Webster mouse assessed as reduction in fungal burden in kidney at 5 mg/kg, iv for 6 days measured 24 hrs after last dose relative to control. Format: functional, organism-based. On the set-up: dose 5 mg/kg.
The subject of series [19] is Aspergillus fumigatus. The series is described as follows: Antifungal activity against Aspergillus fumigatus ATCC 13073 infected in immunosuppressed Swiss Webster mouse assessed as survival rate at 5 mg/kg, iv for 6 days treated 24hrs postinfection measured after 28 days. The format is functional.

Take `CC[C@H](C)C[C@H](C)CCCCCCCCC(=O)N[C@H]1C[C@@H](O)[C@@H](NCCN)NC(=O)[C@@H]2[C@@H](O)CCN2C(=O)[C@H]([C@H](O)CCN)NC(=O)[C@H]([C@H](O)[C@@H](O)c2ccc(O)cc2)NC(=O)[C@@H]2C[C@@H](O)CN2C(=O)[C@H]([C@@H](C)O)NC1=O` [CASPOFUNGIN]: in the series on Aspergillus fumigatus [1], the result was Active. In the series on Aspergillus fumigatus [2], this molecule came in with a minimal inhibitory concentration (MIC) of 0.31 µg/mL (≈ 0.284 µM). Also, the results for the tissue concentration with Kidney [3] and with Spleen [5] were 14.4 µg/g and 31.6 µg/g, respectively. Moreover, the survival at 5 mg/kg/day with Aspergillus fumigatus [4] is 0%.
Take `CCCCCOc1ccc(-c2cc(-c3ccc(C(=O)N[C@H]4C[C@@H](O)[C@@H](O)NC(=O)[C@@H]5[C@@H](O)[C@@H](C)CN5C(=O)[C@H]([C@H](O)CC(N)=O)NC(=O)[C@H]([C@H](O)[C@@H](O)c5ccc(O)c(OS(=O)(=O)O)c5)NC(=O)[C@@H]5C[C@@H](O)CN5C(=O)[C@H]([C@@H](C)O)NC4=O)cc3)no2)cc1` [MICAFUNGIN] (X1-[Orn(4R-OH,5R-OH)]T[Hyp][hTyr(3S-OH,4S-OH,3'-OSO3H)][Gln(3R-OH)][Pro(3S-OH,4S-Me)]; lactam 1-C): the tissue concentration came to 25.2 µg/g in the series with Kidney [6]; 22.5 µg/g in the series on Kidney [8]; 17.9 µg/g with Spleen [12]; 33.6 µg/g in the series with Spleen [14]; 5.6 µg/g with Kidney [16]; 32.7 µg/g in the series on Spleen [17]. Moreover, the lowest concentration to inhibit growth against Aspergillus fumigatus [2] (MIC) was 0.31 µg/mL (≈ 0.244 µM). Besides, the outcome in the series on Aspergillus fumigatus [7], in the series on Aspergillus fumigatus [11], in the series with Aspergillus fumigatus [15] and in the series with Aspergillus fumigatus [18] was Active. Further, the result with Aspergillus fumigatus [9] and in the series with Aspergillus fumigatus [10] was inactive. In addition, the survival at 15 mg/kg in the series with Aspergillus fumigatus [13] is 57%. Moreover, the survival at 5 mg/kg with Aspergillus fumigatus [19] was 86%.
